Results from paper PMC2833169, “Anti-malarial activity of a non-piperidine library of next-generation quinoline methanols” (Malaria Journal, 2010).
Converted amounts (≈) assume the structure as drawn. Read-outs that look alike come from different tables or passages of the source.

What was measured:
[1] = test system: P. falciparum strain TM90C2A; experiment: labeled hypoxanthine susceptibility assay, P. falciparum TM90C2A; type: cell-based, Plasmodium falciparum
Procedure: (§1) The in vitro activities of quinoline methanols against P. falciparum strains W2, D6, TM91C235, and TM90C2A were evaluated using the traditional labeled hypoxanthine assay of Desjardins et al as modified by Milhous et al. These four P. falciparum strains were selected since they have various levels of resistance to conventional anti-malarials.

in vitro [2] = conditions: mouse
Procedure: (§2) General cytotoxicity was assessed by first determining LC50 's against a rodent macrophage (RAW) cell line using the 3-(4,5-dimethylthiazole-2-yl)-2,5-diphenyltetrazolium bromide (MTT) assay as described in one of our earlier studies. This screen was conducted to identify compounds that may require de-selection due to generalized toxicity. […] In vitro neurocytotoxicity was assessed by determining LC50s against primary mouse neurons using the MTT assay as described previously. Inhibition of the A2A and A1 receptors was determined at 200 nM in duplicate by Caliper Biosciences (Hanover, Maryland).

[3] = test system: MDR1-transfected MDCK cell monolayers; experiment: in vitro
Procedure: (§3) For this reason, the apparent permeability of selected compounds across MDR1-transfected MDCK cell monolayers was determined. This assay is an in vitro surrogate of the blood-brain barrier.
(§4) Permeability was determined by Absorption Systems (Exton, PA). MDR1-MDCK cell monolayers were grown to confluence on collagen-coated, microporous, polycarbonate membranes in 12-well Costar Transwell plates. […] The permeability assay buffer was Hanks Balanced Salt Solution containing 10 mM HEPES and 15 mM glucose at a pH of 7.4. A known p-glycoprotein inhibitor cyclosporin A (CSA) was also added to the assay buffer at 10 μM. Bovine serum albumin (1%) was added to the receiver well. The dosing solution concentrations of the test compounds were 5.0 μM in the assay buffer. All cell monolayers were first pre-incubated for 30 minutes with assay buffer. After 30 minutes, the buffer was removed, replaced with fresh buffer, and time was recorded as 0. […] Cell monolayers were dosed on the apical side (A-to-B) or basolateral side (B-to-A) and incubated at 37°C with 5% CO2 in a humidified incubator. After 2 hours, aliquots were taken from the receiver chambers. Samples were taken from the donor chamber at 0 and 2 hours. Each determination was performed in duplicate. The lucifer yellow flux was also measured for each monolayer to ensure no damage was inflicted to the cell monolayers during the flux period. All samples were assayed by LC/MS/MS using electrospray ionization.
(§5) Apparent permeability in the apical (A-B direction), PappA-B, and percent recovery are reported. Apparent permeability is a measure of the rate of transport across the cell monolayer. Percent recovery refers to the amount of compound recoverable at the end of the assay. Low recovery may indicate non-specific binding to assay plates, instability or accumulation in the cell pellet.
(§6) The apparent permeability, Papp, and percent recovery were calculated as follows:
(§7) Papp = (dCr/dt) × Vr/(A × C0) (1)
(§8) Percent Recovery = 100 × ((Vr × Cr^final) + (Vd × Cd^final))/(Vd × […]) (2)

in vitro [4] = conditions: dog, MDCK-MDR1, pH 7.4
Procedure: as §3, §4, §5, §6, §7, §8

[5] = test system: P. falciparum strain TM91C235; experiment: labeled hypoxanthine susceptibility assay, P. falciparum TM91C235; type: cell-based, Plasmodium falciparum; conditions: Plasmodium falciparum
Procedure: as §1

[6] = metabolic stability in mouse liver microsomes; type: in vitro ADME
Procedure: (§9) Interesting compounds were also submitted for drug-drug interaction and metabolic stability assays. Low IC50s against specific cytochrome P450 isoforms may indicate the potential for a harmful drug interaction to occur in vivo with substrates of that isoform. A lack of metabolic stability in vitro may indicate potential metabolic instability in vivo, and, therefore, a shorter half-life. Drug interaction potential was evaluated in vitro using BD Gentest (Franklin Lakes, NJ) CYP450 inhibition kits as recommended by the manufacturer. Metabolic stability assessments were conducted using in vitro liver microsomes. […] The reaction is started with the addition of 1 U/mL glucose-6-phosphate dehydrogenase G6PD. The mixture is incubated on a shaking platform at 37°C, and aliquots are taken and quenched with the addition of an equal volume of cold acetonitrile at 0, 10, 20, 30, and 60 min. Samples are centrifuged at 3700 rpm for […] at 20°C to remove debris. Sample quantification is carried out by LC/MS, and metabolic half-life is calculated by log plots of the total ion chromatograph area remaining.

P. falciparum strain W2 = experiment: labeled hypoxanthine susceptibility assay, P. falciparum W2; type: cell-based, Plasmodium falciparum; conditions: Plasmodium falciparum
Procedure: as §1

P. falciparum strain D6 = experiment: labeled hypoxanthine susceptibility assay, P. falciparum D6; type: cell-based, Plasmodium falciparum; conditions: Plasmodium falciparum
Procedure: as §1

A1 receptor = molecular target: T1, A1 receptor (Homo sapiens, UniProt P30542); experiment: inhibition of the A1 receptor at 200 nM; type: binding; conditions: duplicate
T1 construct: Caliper Biosciences (contract screen)
T1 sequence (P30542 1-326): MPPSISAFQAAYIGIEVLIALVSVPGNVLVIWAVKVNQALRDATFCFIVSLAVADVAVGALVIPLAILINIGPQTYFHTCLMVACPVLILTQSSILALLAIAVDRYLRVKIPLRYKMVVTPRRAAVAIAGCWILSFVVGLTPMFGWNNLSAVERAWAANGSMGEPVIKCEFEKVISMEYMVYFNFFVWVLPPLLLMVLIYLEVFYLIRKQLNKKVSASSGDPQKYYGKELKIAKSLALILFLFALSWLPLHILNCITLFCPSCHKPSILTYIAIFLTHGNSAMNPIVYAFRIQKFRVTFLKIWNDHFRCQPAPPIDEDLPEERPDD
Procedure: as §2

in vitro [7] = conditions: mouse; remark: listed apart in the source
Procedure: as §2

A2A receptor = molecular target: T2, A2A receptor (Homo sapiens, UniProt P29274); experiment: inhibition of the A2A receptor at 200 nM; type: binding; conditions: read-out: % A2A inhibition at 200 nM
T2 construct: Caliper Biosciences (contract screen)
Procedure: as §2

CYP450 2C9 = molecular target: T3, CYP450 2C9 (Homo sapiens, UniProt P11712); experiment: CYP450 inhibition kit (drug-drug interaction), 2C9; type: biochemical
T3 construct: purchased BD Gentest (Franklin Lakes, NJ)
Procedure: as §9, with “Low” for “Interesting compounds were also submitted for drug-drug interaction and metabolic stability assays. Low”

[8] = test system: rodent macrophage (RAW) cell line; experiment: cells; conditions: Mus musculus, Macrophage, read-out: Macrophage IC50
Procedure: as §2

CYP450 2C19 = molecular target: T4, CYP450 2C19 (Homo sapiens, UniProt P33261); experiment: CYP450 inhibition kit (drug-drug interaction), 2C19; type: biochemical
T4 construct: purchased BD Gentest (Franklin Lakes, NJ)
Procedure: as §9, with “Low” for “Interesting compounds were also submitted for drug-drug interaction and metabolic stability assays. Low”

CYP450 1A2 = molecular target: T5, CYP450 1A2 (Homo sapiens, UniProt P05177); experiment: CYP450 inhibition kit (drug-drug interaction), 1A2; type: biochemical
T5 construct: purchased BD Gentest (Franklin Lakes, NJ)
T5 sequence (P05177 1-516): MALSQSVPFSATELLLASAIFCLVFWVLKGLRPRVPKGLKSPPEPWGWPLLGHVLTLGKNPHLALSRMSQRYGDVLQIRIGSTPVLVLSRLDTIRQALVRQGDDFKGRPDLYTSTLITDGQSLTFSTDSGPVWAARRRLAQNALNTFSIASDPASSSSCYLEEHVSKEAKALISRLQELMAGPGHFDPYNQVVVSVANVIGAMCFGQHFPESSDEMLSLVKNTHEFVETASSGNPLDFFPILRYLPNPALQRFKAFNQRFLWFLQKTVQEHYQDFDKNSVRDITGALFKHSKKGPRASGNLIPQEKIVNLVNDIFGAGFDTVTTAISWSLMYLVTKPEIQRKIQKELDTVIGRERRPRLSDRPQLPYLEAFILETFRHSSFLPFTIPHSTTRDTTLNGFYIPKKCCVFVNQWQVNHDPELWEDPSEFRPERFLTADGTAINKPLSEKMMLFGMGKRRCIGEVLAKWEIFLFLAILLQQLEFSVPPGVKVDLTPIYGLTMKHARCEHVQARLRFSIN
Procedure: as §9, with “Low” for “Interesting compounds were also submitted for drug-drug interaction and metabolic stability assays. Low”

CYP450 3A4 = molecular target: T6, CYP450 3A4 (Homo sapiens, UniProt P08684); experiment: CYP450 inhibition kit (drug-drug interaction), 3A4; type: biochemical
T6 construct: purchased BD Gentest (Franklin Lakes, NJ)
Procedure: as §9, with “Low” for “Interesting compounds were also submitted for drug-drug interaction and metabolic stability assays. Low”

CYP450 2D6 = molecular target: T7, CYP450 2D6 (Homo sapiens, UniProt P10635); experiment: CYP450 inhibition kit (drug-drug interaction), 2D6; type: biochemical
T7 construct: purchased BD Gentest (Franklin Lakes, NJ)
Procedure: as §9, with “Low” for “Interesting compounds were also submitted for drug-drug interaction and metabolic stability assays. Low”

[9] = Plasmodium falciparum, TM90C2A, read-out: IC90 Pf C2A
[10] = Plasmodium falciparum, TM90C2A; read-out: IC90 PfC2A
[11] = dog, MDCK-MDR1, 2 h, 5 μM, pH 7.4
[12] = Figure 3, species of microsomes not given
[13] = D6, read-out: IC90 Pf D6, P. falciparum D6, mefloquine: historical mean +/- SD (n)

T7 sequence (P10635 whole entry): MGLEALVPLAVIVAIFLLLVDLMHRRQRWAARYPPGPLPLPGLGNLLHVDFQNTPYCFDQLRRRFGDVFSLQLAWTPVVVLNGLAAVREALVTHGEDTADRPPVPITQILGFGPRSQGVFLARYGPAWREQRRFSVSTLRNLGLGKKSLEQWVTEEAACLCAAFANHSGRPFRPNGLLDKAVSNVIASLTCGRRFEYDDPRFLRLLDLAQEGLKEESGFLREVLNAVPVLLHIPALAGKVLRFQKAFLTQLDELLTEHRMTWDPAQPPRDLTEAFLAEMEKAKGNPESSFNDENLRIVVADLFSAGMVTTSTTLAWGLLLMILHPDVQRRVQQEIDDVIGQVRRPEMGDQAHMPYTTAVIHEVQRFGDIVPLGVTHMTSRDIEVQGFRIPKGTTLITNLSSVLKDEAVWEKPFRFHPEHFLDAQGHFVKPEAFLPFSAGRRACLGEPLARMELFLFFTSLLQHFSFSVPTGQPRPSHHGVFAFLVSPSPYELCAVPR
T3 sequence (P11712 whole entry): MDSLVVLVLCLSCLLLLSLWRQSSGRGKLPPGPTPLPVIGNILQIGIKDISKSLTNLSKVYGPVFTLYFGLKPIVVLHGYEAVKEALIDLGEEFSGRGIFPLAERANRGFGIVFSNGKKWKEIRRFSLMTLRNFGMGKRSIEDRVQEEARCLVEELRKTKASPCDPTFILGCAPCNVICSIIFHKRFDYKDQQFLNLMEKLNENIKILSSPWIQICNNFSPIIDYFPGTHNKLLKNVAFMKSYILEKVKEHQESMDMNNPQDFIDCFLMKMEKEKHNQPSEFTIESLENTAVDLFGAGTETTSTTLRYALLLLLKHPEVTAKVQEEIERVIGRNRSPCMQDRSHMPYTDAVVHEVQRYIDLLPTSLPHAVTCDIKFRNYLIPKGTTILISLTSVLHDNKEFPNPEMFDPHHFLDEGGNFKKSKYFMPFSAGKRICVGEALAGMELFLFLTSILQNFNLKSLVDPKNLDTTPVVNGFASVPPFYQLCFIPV
T6 sequence (P08684 whole entry): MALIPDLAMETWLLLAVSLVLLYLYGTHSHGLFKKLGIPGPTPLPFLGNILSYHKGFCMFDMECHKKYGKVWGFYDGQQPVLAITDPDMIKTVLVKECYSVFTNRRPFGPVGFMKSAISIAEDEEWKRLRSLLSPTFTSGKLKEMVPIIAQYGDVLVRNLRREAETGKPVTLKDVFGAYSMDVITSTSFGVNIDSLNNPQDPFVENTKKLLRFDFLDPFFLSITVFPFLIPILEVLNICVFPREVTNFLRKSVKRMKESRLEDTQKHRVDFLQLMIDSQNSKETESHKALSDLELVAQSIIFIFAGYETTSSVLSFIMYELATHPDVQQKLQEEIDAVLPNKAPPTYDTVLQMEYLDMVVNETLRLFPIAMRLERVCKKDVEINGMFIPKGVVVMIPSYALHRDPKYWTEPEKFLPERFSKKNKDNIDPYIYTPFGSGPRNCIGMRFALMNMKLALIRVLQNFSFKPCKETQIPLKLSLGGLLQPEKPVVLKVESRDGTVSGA
T4 sequence (P33261 whole entry): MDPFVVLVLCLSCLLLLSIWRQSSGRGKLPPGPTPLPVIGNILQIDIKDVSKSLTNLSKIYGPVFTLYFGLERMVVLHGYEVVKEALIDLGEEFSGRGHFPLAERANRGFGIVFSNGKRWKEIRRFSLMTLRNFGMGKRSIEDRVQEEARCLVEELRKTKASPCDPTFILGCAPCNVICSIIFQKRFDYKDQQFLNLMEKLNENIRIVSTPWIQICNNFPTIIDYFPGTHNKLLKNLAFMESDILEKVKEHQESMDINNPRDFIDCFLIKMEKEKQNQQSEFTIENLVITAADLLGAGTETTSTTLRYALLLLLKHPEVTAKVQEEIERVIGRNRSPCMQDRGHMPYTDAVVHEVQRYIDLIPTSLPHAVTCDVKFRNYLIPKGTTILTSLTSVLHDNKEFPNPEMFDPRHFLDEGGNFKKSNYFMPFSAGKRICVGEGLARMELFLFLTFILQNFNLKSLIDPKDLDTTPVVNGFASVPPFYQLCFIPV
T2 sequence (P29274 whole entry): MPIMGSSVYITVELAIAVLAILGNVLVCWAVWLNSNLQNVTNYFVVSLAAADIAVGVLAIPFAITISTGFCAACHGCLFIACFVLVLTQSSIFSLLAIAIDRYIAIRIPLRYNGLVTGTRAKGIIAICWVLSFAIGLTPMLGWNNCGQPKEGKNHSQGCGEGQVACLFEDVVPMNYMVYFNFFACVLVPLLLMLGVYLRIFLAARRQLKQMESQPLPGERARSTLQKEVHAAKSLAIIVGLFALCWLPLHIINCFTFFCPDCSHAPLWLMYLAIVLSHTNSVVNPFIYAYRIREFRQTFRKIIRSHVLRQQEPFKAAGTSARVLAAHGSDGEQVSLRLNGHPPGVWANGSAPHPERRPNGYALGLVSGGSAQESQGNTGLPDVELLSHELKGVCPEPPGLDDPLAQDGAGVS

| SMILES | IC90 [1, 9] | IC90 [1, 10] | CC50 (in vitro [2]) | % recovery (MDCK-MDR1 permeability assay) [3, 11] | Papp A→B at 2 h, 5 μM (in vitro [4]) | IC90 ([5]; read-out: IC90 Pf C235) | HL in Microsomes [6, 12] | IC90 (P. falciparum strain W2; W2, read-out: IC90 Pf W2) | IC90 (P. falciparum strain D6; [13]) | CC50 (in vitro [7]) | further results |
| --- | --- | --- | --- | --- | --- | --- | --- | --- | --- | --- | --- |
| CCCCNCC(O)c1cc(C(F)(F)F)nc2c(C(F)(F)F)cccc12 (racemic) [WR177000] | 0.0123 µg/mL | 0.032 µM | 2.78 µg/mL (≈ 7.31 µM) | 58% | 25.4 ×10⁻⁶ cm/s | 0.0089 µg/mL (≈ 0.0234 µM) | 37 min | 0.0017 µg/mL (≈ 0.00447 µM) | 0.0067 µg/mL (≈ 0.0176 µM) |  |  |
| OC(c1cc(C(F)(F)F)nc2c(C(F)(F)F)cccc12)C1CCCCN1 (stereo not drawn) [Mefloquine, mefloquine, reference compound] | 0.074 ± 0.032 µg/mL |  | 3.72 ± 1.51 µg/mL (≈ 9.84 µM) |  |  | 0.052 ± 0.03 µg/mL (≈ 0.137 µM) |  | 0.0062 ± 0.0028 µg/mL (≈ 0.0164 µM) | 0.017 ± 0.011 µg/mL (≈ 0.0449 µM) | 41 µM | inhibition at 0.2 µM (A1 receptor): 4%; IC90 ([1]; Plasmodium falciparum, TM90C2A, read-out: IC90 PfC2A): 0.171 µM; PappA-B MDCK-MDR1 ([3]; apical (A-B) direction, 5.0 μM, 10 μM cyclosporin A, 2 h, mefloquine average of n = 3): 9.4 10^-6 cm/s; % recovery (MDCK-MDR1 permeability assay) ([3]; compound recoverable at end of assay): < 40%; HL in Microsomes ([6]; 1 μM, pH 7.4): > 60 min; half-life at 1 μM ([6]; mouse, microsomes, pH 7.4): > 60 min; inhibition at 0.2 µM (A2A receptor): 62% |
| CCC(C)CNCC(O)c1cc(C(F)(F)F)nc2c(C(F)(F)F)cccc12 (stereo not drawn) [WR308387] | 0.011 µg/mL | 0.026 µM |  | 42% | 18 ×10⁻⁶ cm/s | 0.012 µg/mL (≈ 0.0304 µM) |  | 0.0012 µg/mL (≈ 0.00304 µM) | 0.007 µg/mL (≈ 0.0178 µM) | > 120 µM | IC50 (CYP450 2C9): 11 µM; IC90 ([1]; Plasmodium falciparum, TM90C2A, read-out: PF C2A IC90): 0.011 µg/mL; CSI (C2A/W2) ([1]; ratio of IC90 C2A to IC90 W2): 9.2; IC50 [8]: 20.8 µM; IC50 (CYP450 2C19): 7 µM; IC90 ([5]; read-out: PF C235 IC90): 0.0116 µg/mL (≈ 0.0293 µM); IC50 (CYP450 1A2): 2.1 µM; half-life at 1 μM ([6]; pH 7.4, mouse liver microsomes, 1 μM, read-out: Half-life in mouse micro): 20 min; IC90 (P. falciparum strain W2; W2, read-out: PF W2 IC90): 0.00119 µg/mL (≈ 0.00302 µM); IC50 (CYP450 3A4): > 40 µM; IC90 (P. falciparum strain D6; D6, read-out: PF D6 IC90, P. falciparum D6): 0.00695 µg/mL (≈ 0.0176 µM); IC50 (CYP450 2D6): 2 µM |
| OC(CNCC1CCCN1)c1cc(C(F)(F)F)nc2c(C(F)(F)F)cccc12 (stereo not drawn) [WR308621] | 0.198 µg/mL |  | 20.3 µg/mL (≈ 49.8 µM) | 28% | < 3.3 ×10⁻⁶ cm/s | 0.1 µg/mL (≈ 0.245 µM) | > 60 min | 0.046 µg/mL (≈ 0.113 µM) | 0.092 µg/mL (≈ 0.226 µM) |  |  |
| CCCCNCCNCC(O)c1cc(C(F)(F)F)nc2c(C(F)(F)F)cccc12 (stereo not drawn) [WR318746] | 0.319 µg/mL |  | 28.5 µg/mL (≈ 67.4 µM) | 42% | 5.9 ×10⁻⁶ cm/s | 0.283 µg/mL (≈ 0.668 µM) | > 60 min | 0.09 µg/mL (≈ 0.213 µM) | 0.155 µg/mL (≈ 0.366 µM) |  |  |
| OC(CNCC12CCC(C1)NC2)c1cc(C(F)(F)F)nc2c(C(F)(F)F)cccc12 (stereo not drawn) [WR319535/581] | 0.251 µg/mL |  | 4.11 µg/mL (≈ 9.48 µM) | 52% | 2 ×10⁻⁶ cm/s | 0.26 µg/mL (≈ 0.6 µM) | > 60 min | 0.275 µg/mL (≈ 0.635 µM) | 0.075 µg/mL (≈ 0.173 µM) |  |  |
